Measured values taken from PMC9265530, “The Three Two-Pore Channel Subtypes from Rabbit Exhibit Distinct Sensitivity to Phosphoinositides, Voltage, and Extracytosolic pH” (Cells, 2022).

Assays:
[1] = molecular target: T1, OcTPC3 (Oryctolagus cuniculus, UniProt B8Q2W0); experiment: inside-out patch clamp, tail current at […] mV after +[…] mV step; assay type: biochemical; details: agonist; relative to 1 µM PI(3,5)P2; 4-s step to +100 mV; pH 7.2
T1 construct: gene TPCN3; C-terminal EGFP fusion (pEGFP-N1), transient in HEK293; previously cloned cDNA; dimer
T1 sequence (B8Q2W0 1-766): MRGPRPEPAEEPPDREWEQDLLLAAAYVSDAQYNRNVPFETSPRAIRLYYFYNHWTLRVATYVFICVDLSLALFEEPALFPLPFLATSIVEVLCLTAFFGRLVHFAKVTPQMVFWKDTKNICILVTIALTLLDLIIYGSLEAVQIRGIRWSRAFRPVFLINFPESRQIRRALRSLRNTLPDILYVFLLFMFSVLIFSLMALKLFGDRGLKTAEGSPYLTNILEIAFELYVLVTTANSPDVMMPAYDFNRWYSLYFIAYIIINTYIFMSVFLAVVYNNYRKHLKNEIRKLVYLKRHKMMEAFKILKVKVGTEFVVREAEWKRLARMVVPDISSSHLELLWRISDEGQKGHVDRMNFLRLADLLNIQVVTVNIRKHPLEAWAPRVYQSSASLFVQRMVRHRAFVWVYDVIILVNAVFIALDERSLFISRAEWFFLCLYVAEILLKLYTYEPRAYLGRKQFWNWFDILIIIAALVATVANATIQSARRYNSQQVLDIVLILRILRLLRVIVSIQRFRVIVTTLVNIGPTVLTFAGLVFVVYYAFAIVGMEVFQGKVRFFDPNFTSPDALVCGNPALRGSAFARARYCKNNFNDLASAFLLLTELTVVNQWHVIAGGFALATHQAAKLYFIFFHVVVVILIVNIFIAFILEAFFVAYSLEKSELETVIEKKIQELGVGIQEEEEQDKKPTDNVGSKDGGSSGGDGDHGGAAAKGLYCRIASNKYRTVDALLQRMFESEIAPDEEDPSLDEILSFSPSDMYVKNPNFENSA

[2] = molecular target: T2, OcTPC2 (Oryctolagus cuniculus, UniProt Z9ZIB8IF81); experiment: whole-endolysosome patch clamp, current at -100 mV; assay type: biochemical; details: inhibitor; against 100 nM PI(3,5)P2; voltage ramps
T2 construct: full-length, C-terminal EGFP fusion (pEGFP-N1), transient in HEK293; cloned from rabbit kidney RNA; 749/753 residues match GBCT01193833.1; dimer

[3] = tested on: T3, OcTPC1; experiment: inside-out patch clamp, current at -100 mV; assay type: cell-based, Oryctolagus cuniculus; details: agonist; voltage ramps; cytoplasmic pH 7.2; room temperature; HEK293
T3 construct: gene TPCN1; full-length, C-terminal EGFP fusion (pEGFP-N1), transient in HEK293; cloned from rabbit kidney RNA; 815/817 residues match XM_017349553.1; dimer

[4] = molecular target: T1, OcTPC3; experiment: inside-out patch clamp, tail current at […] mV after +[…] mV step; assay type: cell-based
[5] = molecular target: T2, OcTPC2; experiment: whole-endolysosome patch clamp, current at -100 mV; assay type: cell-based; details: agonist; voltage ramps; vacuolin-1 enlarged vacuoles; cytoplasmic pH 7.2; room temperature; HEK293

| Structure (SMILES) | % of PI(3,5)P2 response at 1 μM [1] [%] | also measured |
| --- | --- | --- |
| CCCCCCCC(=O)OC[C@H](COP(=O)(O)O[C@@H]1[C@H](O)[C@H](OP(=O)(O)O)[C@@H](O)[C@H](O)[C@H]1O)OC(=O)CCCCCCC [PI3P] | 93.8 ± 5.1 |  |
| CCCCCCCC(=O)OC[C@H](COP(=O)(O)O[C@H]1[C@H](O)[C@@H](O)[C@H](OP(=O)(O)O)[C@@H](OP(=O)(O)O)[C@H]1O)OC(=O)CCCCCCC [PI(3,4)P2] | 29.9 ± 5.2 |  |
| CCCCCCCC(=O)OC[C@H](COP(=O)(O)O[C@@H]1[C@H](O)[C@H](OP(=O)(O)O)[C@@H](O)[C@H](OP(=O)(O)O)[C@H]1O)OC(=O)CCCCCCC [diC8 PI(3,5)P2] |  | EC50 [3]: 26.3 ± 5 nM; EC50 [4]: 142 ± 0.2 nM; EC50 [5]: 208 ± 8.1 nM |

Continued, in another order:

| % of PI(3,5)P2 response at 1 μM [1] [%] | Structure (SMILES) | also measured |
| --- | --- | --- |
| 9.0 ± 2.0 | CCCCCCCC(=O)OC[C@H](COP(=O)(O)O[C@@H]1[C@H](O)[C@H](O)[C@@H](OP(=O)(O)O)[C@H](OP(=O)(O)O)[C@H]1O)OC(=O)CCCCCCC [PI(4,5)P2] | % inhibition at 1 μM [2]: 67.6 ± 5.3% |
| 7.0 ± 2.0 | CCCCCCCC(=O)OC[C@H](COP(=O)(O)O[C@H]1[C@H](O)[C@@H](OP(=O)(O)O)[C@H](OP(=O)(O)O)[C@@H](OP(=O)(O)O)[C@H]1O)OC(=O)CCCCCCC [PI(3,4,5)P3] |  |
